Common to all, as to assay type: biochemical
One test has as its target AKT2 (Homo sapiens, UniProt P31751). The test can be described thus: Kinome profiling AKT2. Conditions: read-out: Inhibitory activity AKT2; for inhibition at 0.1 µM: 100 nM. The protocol: (§1) . The kinome-wide selectivity was determined following the methods previously reported by Mohedas et al., ACS Chem Biol 2013, 8, 1291-1302 and Sanvitale et al., PLoS One 2013, 8, e62721.

The target in the next test is GRK6 (Homo sapiens, UniProt P43250). Kind of test: Kinome profiling GRK6. The following applies: read-out: Inhibitory activity GRK6; for inhibition at 0.1 µM: 100 nM. As to the method:
as §1

The next test deals with T1, BRSK1 (Homo sapiens, UniProt Q8TDC3).
T1 sequence (Q8TDC3 1-778): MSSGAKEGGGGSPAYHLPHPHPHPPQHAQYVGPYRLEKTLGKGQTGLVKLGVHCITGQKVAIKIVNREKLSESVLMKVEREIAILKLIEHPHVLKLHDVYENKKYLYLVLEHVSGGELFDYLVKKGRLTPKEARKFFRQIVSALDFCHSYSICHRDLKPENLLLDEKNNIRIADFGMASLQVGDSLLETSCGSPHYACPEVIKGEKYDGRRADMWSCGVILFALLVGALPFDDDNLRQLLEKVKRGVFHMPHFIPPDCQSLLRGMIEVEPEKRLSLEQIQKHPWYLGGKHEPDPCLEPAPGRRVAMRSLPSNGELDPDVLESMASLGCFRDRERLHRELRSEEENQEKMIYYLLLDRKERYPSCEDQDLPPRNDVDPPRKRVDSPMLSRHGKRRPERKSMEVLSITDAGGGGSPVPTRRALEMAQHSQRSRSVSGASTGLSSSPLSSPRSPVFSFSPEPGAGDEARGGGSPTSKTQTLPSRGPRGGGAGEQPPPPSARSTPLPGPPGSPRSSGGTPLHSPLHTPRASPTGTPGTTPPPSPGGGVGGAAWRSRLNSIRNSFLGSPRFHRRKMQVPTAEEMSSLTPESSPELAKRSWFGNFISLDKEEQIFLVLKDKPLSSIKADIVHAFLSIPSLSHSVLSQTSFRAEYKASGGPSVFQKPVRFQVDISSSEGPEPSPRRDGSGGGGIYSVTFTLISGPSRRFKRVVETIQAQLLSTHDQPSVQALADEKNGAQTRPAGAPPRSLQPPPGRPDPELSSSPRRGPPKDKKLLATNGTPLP
The test can be described thus: Kinome profiling BRSK1. The following applies: read-out: Inhibitory activity BRSK1; for inhibition at 0.1 µM: 100 nM. The protocol:
as §1

A further test deals with T2, CAMK4 (Homo sapiens, UniProt Q16566).
T2 sequence (Q16566 1-473): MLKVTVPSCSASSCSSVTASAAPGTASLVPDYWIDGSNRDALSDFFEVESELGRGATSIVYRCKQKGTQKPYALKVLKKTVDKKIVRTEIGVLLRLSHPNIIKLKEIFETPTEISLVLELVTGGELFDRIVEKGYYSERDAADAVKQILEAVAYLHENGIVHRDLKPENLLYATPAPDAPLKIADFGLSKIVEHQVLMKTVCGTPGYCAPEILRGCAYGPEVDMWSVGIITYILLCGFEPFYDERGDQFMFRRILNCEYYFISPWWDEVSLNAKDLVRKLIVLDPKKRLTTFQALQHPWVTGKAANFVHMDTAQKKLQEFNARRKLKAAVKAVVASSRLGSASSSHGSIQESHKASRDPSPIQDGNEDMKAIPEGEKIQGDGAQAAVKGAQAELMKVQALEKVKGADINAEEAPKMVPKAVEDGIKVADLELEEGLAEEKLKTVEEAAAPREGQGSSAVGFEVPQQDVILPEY
Kind of test: Kinome profiling CAMK4. Conditions: read-out: Inhibitory activity CAMK4; for inhibition at 0.1 µM: 100 nM. The protocol:
as §1

In another test the target is MAPK3 (Homo sapiens, UniProt P27361). The test can be described thus: Kinome profiling MAPK3. Conditions: read-out: Inhibitory activity MAPK3; for inhibition at 0.1 µM: 100 nM. As to the method:
as §1

The target in the next test is T3, IKK-ε (Homo sapiens, UniProt Q14164).
T3 sequence (Q14164 1-716): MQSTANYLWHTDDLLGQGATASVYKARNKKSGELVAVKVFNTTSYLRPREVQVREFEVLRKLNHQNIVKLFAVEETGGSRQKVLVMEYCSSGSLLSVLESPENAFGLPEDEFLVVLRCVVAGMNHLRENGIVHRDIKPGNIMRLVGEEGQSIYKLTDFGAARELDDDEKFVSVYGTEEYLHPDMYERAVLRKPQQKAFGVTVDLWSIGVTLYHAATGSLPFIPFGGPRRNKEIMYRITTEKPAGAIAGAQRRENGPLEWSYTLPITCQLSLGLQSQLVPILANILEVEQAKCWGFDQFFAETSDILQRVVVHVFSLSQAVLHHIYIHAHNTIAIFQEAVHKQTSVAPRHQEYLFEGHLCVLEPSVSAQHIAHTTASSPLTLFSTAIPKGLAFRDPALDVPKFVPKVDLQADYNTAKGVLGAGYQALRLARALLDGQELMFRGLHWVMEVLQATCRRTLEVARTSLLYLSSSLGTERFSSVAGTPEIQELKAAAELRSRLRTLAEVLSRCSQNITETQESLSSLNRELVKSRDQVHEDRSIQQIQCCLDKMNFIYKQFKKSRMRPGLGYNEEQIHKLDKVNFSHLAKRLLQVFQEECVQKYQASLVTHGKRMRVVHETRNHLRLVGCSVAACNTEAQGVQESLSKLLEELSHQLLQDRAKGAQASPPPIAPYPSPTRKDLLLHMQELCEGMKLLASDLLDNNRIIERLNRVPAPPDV
Kind of test: Kinome profiling IKK-ε. Conditions: read-out: Inhibitory activity IKK-ε; for inhibition at 0.1 µM: 100 nM. As to the method: as §1

Another test has as its target LTK (Homo sapiens, UniProt P29376). Kind of test: Kinome profiling LTK. Conditions: read-out: Inhibitory activity LTK; for inhibition at 0.1 µM: 100 nM. As to the method:
as §1

The target in the next test is PKC-θ (Homo sapiens, UniProt Q04759). Kind of test: Kinome profiling PKC-θ. Conditions: read-out: Inhibitory activity PKC-θ; for inhibition at 0.1 µM: 100 nM. The protocol: as §1
Chain of PKC-θ (Q04759 whole entry): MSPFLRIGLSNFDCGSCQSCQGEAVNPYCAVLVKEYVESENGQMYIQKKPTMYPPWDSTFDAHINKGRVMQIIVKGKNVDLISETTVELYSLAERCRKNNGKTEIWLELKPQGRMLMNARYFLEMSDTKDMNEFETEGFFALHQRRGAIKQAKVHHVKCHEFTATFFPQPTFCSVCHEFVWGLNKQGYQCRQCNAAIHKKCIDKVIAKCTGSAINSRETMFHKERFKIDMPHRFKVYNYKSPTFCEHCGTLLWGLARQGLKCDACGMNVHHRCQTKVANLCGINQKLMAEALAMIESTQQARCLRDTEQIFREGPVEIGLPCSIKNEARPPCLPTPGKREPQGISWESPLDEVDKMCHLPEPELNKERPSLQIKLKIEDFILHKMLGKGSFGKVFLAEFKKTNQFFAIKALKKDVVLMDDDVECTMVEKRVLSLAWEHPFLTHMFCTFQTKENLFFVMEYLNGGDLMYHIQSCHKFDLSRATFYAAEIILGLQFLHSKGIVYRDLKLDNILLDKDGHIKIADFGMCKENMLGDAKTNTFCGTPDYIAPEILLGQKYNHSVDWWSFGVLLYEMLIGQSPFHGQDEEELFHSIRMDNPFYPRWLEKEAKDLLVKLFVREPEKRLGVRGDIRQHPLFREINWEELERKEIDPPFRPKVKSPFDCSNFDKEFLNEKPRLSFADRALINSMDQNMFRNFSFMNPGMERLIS

Chain of MAPK3 (P27361 whole entry): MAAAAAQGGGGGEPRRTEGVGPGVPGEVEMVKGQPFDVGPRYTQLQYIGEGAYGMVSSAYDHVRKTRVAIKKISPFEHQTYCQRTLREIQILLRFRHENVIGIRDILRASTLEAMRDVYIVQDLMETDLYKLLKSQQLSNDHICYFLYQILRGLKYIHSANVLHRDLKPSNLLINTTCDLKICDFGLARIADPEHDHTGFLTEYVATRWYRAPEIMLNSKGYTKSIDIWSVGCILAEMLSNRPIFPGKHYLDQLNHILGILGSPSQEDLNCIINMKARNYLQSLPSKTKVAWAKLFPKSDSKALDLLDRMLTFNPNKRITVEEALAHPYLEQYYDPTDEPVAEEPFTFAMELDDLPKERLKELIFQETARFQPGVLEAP
Chain of AKT2 (P31751 whole entry): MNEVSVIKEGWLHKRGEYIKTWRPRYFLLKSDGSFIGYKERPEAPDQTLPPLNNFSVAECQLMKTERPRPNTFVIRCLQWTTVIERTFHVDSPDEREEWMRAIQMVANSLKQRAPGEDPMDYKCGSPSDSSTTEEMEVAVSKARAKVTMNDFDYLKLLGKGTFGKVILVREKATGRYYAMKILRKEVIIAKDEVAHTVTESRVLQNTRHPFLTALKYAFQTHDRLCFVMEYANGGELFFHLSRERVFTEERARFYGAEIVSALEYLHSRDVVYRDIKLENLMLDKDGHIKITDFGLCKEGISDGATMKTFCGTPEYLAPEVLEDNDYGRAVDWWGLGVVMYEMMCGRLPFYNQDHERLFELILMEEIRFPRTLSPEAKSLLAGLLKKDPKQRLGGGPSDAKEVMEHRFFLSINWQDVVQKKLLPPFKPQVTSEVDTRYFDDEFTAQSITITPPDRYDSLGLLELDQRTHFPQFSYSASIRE
Chain of LTK (P29376 17-864): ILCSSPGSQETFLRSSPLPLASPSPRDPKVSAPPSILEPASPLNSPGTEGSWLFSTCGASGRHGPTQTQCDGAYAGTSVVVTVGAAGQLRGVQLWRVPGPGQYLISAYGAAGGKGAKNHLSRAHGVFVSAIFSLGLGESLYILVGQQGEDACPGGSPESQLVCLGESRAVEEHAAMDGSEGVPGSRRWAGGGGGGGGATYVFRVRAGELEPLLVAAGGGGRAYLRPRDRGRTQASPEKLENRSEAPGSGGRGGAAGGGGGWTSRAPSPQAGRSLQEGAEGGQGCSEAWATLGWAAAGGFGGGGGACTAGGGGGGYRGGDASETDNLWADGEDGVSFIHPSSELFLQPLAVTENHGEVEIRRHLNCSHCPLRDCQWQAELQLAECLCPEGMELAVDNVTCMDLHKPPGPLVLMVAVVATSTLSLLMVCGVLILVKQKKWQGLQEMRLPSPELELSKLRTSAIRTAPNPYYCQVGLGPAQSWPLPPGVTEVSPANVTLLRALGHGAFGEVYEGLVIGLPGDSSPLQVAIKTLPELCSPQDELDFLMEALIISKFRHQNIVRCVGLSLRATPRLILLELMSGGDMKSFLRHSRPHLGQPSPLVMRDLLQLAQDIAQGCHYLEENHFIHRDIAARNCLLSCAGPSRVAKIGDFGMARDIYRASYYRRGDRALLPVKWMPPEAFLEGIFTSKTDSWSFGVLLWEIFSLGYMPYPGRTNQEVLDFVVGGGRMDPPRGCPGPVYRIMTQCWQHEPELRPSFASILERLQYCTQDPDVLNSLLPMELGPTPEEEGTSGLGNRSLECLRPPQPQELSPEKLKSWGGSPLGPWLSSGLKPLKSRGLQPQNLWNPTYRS
Chain of GRK6 (P43250 whole entry): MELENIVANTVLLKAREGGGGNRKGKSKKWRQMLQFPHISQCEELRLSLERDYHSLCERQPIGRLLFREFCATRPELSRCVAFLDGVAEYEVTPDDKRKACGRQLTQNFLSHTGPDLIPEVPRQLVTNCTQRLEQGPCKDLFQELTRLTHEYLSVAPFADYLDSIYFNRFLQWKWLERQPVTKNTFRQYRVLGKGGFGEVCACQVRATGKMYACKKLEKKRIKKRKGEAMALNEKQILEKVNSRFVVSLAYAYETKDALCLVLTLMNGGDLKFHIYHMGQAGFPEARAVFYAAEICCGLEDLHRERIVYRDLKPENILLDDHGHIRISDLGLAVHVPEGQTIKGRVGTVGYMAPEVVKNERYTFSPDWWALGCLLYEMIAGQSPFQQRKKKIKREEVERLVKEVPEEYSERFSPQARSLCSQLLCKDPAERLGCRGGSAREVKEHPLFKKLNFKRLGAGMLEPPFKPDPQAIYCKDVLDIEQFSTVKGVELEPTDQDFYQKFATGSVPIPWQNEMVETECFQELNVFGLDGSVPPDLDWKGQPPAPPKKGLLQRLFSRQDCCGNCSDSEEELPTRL

With `COc1cc(-c2cc(-c3ccc(N4CCNCC4)cc3)cnc2C)cc(OC)c1OC` [Compound 10, 1-(4-(6-methyl-5-(3,4,5-trimethoxyphenyl)pyridin-3-yl)phenyl)piperazine], the inhibition at 0.1 µM on AKT2 is -1%; on GRK6 it was 8%; on BRSK1, 1%; at CAMK4, 0%; on MAPK3 it was 1%; at IKK-ε, 2%. The inhibition at 0.1 µM worked out at 4% on LTK and 1% at PKC-θ. The inhibition at 1 µM is -1% on AKT2; 3% at GRK6; 1% at BRSK1; -1% on CAMK4; 2% on MAPK3; 2% at IKK-ε. Also, the inhibition at 1 µM at LTK came out at 10%; at PKC-θ it was 2%.
On to `COc1cc(-c2cc(-c3ccc(N4CCNCC4)cc3)cnc2N)cc(OC)c1OC` [Compound 15, 5-(4-(piperazin-1-yl)phenyl)-3-(3,4,5-trimethoxyphenyl)pyridin-2-amine], for which the inhibition at 0.1 µM on AKT2 worked out at 2%; at GRK6, 0%; at BRSK1 it was 0%; at CAMK4, 21%; on MAPK3, 1%; on IKK-ε it was 1%. Moreover, the inhibition at 0.1 µM turned out to be 13% on LTK and 1% at PKC-θ. Also, the inhibition at 1 µM on AKT2 is 2%; on GRK6 it was 0%; on BRSK1, 0%; at CAMK4 it was -1%; at MAPK3, 0%; at IKK-ε it was 20%. For the same compound, the inhibition at 1 µM stood at 60% at LTK and 1% at PKC-θ.

Values taken from US20170190705A1, “Compositions and Methods for Inhibiting BMP” (THE BRIGHAM AND WOMAN'S HOSPITAL, INC., priority 2014, published 2017).
